Data as given in patent US20120077786A1, “METHODS AND COMPOSITIONS FOR DISEASE TREATMENT USING INHALATION” (priority 2010, published 2012).

Experiments:
[1] = system: Airway smooth muscle; conditions: cited from earlier work
[2] = system: asthmatic adults; conditions: cited from earlier work
[3] = system: cell line cultured from patients with corticosteroid resistant asthma; conditions: after addition of vitamin D; promotion of regulatory T cells; cited from earlier work
[4] = system: patients with COPD; conditions: extrafine, 1.1 microns in diameter, HFA pMDI; cited from earlier work
[5] = Aerosol performance of dry powder inhaler formulation, next generation Impactor; type: physicochemical; conditions: inhaler operated at 15 L/min
Protocol: Inhaled corticosteroids (ICS) mometasone furoate or fluticasone furoate are prepared with volume median particle size of less than 5 microns. Calcitriol (1, 25-Dihydroxycholecalciferol) is also prepared in crystalline form and subsequently micronized to a volume median particle size of less than 5 microns. The ICS's are incorporated at appropriately 30-50% of the commercial ICS dose when administered via a passive dry powder inhaler, due to the efficiency of the invention delivered by a dry powder inhaler (DPI) available from MicroDose Therapeutx, Inc. One preferred embodiment utilizes an ICS dosed once daily, i.e. mometasone furoate or fluticasone furoate, to coincide with a once daily dose of the vitamin D receptor agonist. This combination product is designed to reverse corticoidsteroid resistance (CR) by adding the protective anti-inflammatory effects of calcitriol with the local anti-inflamatory effects of these ICS's. The inhaler is operated at 15 L/min and for both medicaments, the aerosol performance with a fine particle fraction (% of particles exiting the inhaler that are less than 5.8 microns) is […] with at least 10% of particles in the less than 2.1 micron size range when tested with a next generation Impactor.
Calcitriol is a synthetic vitamin D analog and has been used as a pharmaceutical as well as a nutraceutical. […]

[6] = system: adult rats with preexisting elastase-induced emphysema; conditions: cited from earlier work
[7] = system: adults with hereditary emphysema; conditions: cited from earlier work
[8] = system: mice exposed to cigarette smoke; conditions: cited from earlier work

For vitamin D, the “airway smooth muscle proliferation” value [1] is listed as “slow”, the “mean increase in FEV1 for every 1 ng/mL increase in systemic vitamin D” value [2] is listed as 22.7 mL and the steroid sensitivity [3] is listed as “increased steroid sensitivity”.

For `CCC(=O)OCC(=O)[C@@]1(OC(=O)CC)[C@@H](C)C[C@H]2[C@@H]3CCC4=CC(=O)C=C[C@]4(C)[C@@]3(Cl)[C@@H](O)C[C@@]21C` [beclomethasone dipropionate], the air trapping [4] is given as “significant reduction in air trapping”.

With `C=C1/C(=C\C=C2/CCC[C@]3(C)[C@@H]([C@H](C)CCCC(C)(C)O)CC[C@@H]23)C[C@@H](O)C[C@@H]1O` [calcitriol, 1, 25-Dihydroxycholecalciferol] the “particles in the less than 2.1 micron size range” value [5] was “at least 10%”.

In the case of `CC1=C(/C=C/C(C)=C/C=C/C(C)=C/C(=O)O)C(C)(C)CCC1` [ATRA, All Trans Retinoic Acid], the alveolus formation [6] is given as “induces alveolus formation”, the trial outcome [7] is given as “not been successful” and the “formation of pulmonary emphysema” value ([8]; mice exposed to cigarette smoke) is given as “diminishes the formation of pulmonary emphysema”. The “distance between alveolar walls” value ([8]; mice with emphysema produced by cigarette smoke) was “decreases the distance between alveolar walls”.
